# In the supplement of paper PMC4862054:
# System: SK-BR-3
# Assay: normalised response (% of control), CellTiter-Glo; higher = more viable cells (100 = DMSO, 0 = benzethonium chloride kill control)
# Settings: incubation time: 72 h
# Method in brief: (§1)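 Every value is a normalised signal taken at one concentration of a dilution series. Compound was placed in 384-well plates at 5 concentrations in 10-fold steps over a compound-specific 10,000-fold range, and 20 µl of breast cancer cell suspension was seeded onto it. After 72 h, CellTox Green fluorescence (485/520 nm) was measured first and CellTiter-Glo luminescence second, following 10 min at room temperature. Each plate was scaled to 0.1 % DMSO (100) and a positive kill control (0).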
row,Structure (SMILES),normalised response
1,Cc1ccc(-c2cc(C(F)(F)F)nn2-c2ccc(S(N)(=O)=O)cc2)cc1 [Celecoxib] (1000 nM),101%
2,CCN(CC)CCCC(C)Nc1c2ccc(Cl)cc2nc2ccc(OC)cc12 (stereo not given) [Mepacrine] (5000 nM),102%
3,C=CC(=O)Nc1cc2c(Nc3ccc(F)c(Cl)c3)ncnc2cc1OCCCN1CCOCC1 [Canertinib] (1000 nM),27.2%
4,C[C@H]1C[C@@H]2[C@H]([C@@H](O)C[C@@]3(C)[C@H]2CC[C@]3(O)C(=O)CO)[C@@]2(C)C=CC(=O)C=C12 [Methylprednisolone] (1000 nM),94.5%
5,CC[C@H](Nc1ncnc2[nH]cnc12)c1nc2cccc(F)c2c(=O)n1-c1ccccc1 [GS-1101] (1000 nM),79.6%
6,C=CC(=O)N1CCC[C@@H](n2nc(-c3ccc(Oc4ccccc4)cc3)c3c(N)ncnc32)C1 [Ibrutinib] (100 nM),27.5%

# System: MCF-10A
# Assay: as above
# Settings: incubation time: 72 h
# Method in brief: as §1
row,Structure (SMILES),normalised response
1,Nc1nc(F)nc2c1ncn2[C@@H]1O[C@H](CO)[C@@H](O)[C@@H]1O [Fludarabine] (1000 nM),106%
2,Nc1ccccc1NC(=O)c1ccc(CNC(=O)OCc2cccnc2)cc1 [Entinostat] (1000 nM),142%
3,CNC(=O)c1cc(Oc2ccc(NC(=O)Nc3cc(C(C)(C)C)nn3-c3ccc4ncccc4c3)c(F)c2)ccn1 [Rebastinib] (100 nM),119%
4,Cc1ccc(-c2cc(C(F)(F)F)nn2-c2ccc(S(N)(=O)=O)cc2)cc1 [Celecoxib] (1000 nM),112%
5,CCN(CC)CCCC(C)Nc1c2ccc(Cl)cc2nc2ccc(OC)cc12 (stereo not given) [Mepacrine] (5000 nM),108%
6,C=CC(=O)Nc1cc2c(Nc3ccc(F)c(Cl)c3)ncnc2cc1OCCCN1CCOCC1 [Canertinib] (1000 nM),32.2%
7,C[C@H]1C[C@@H]2[C@H]([C@@H](O)C[C@@]3(C)[C@H]2CC[C@]3(O)C(=O)CO)[C@@]2(C)C=CC(=O)C=C12 [Methylprednisolone] (1000 nM),96.7%
8,CC[C@H](Nc1ncnc2[nH]cnc12)c1nc2cccc(F)c2c(=O)n1-c1ccccc1 [GS-1101] (1000 nM),78.9%
9,C=CC(=O)N1CCC[C@@H](n2nc(-c3ccc(Oc4ccccc4)cc3)c3c(N)ncnc32)C1 [Ibrutinib] (100 nM),91%

# System: MDA-MB-453
# Assay: as above
# Settings: incubation time: 72 h
# Method in brief: as §1
row,Structure (SMILES),normalised response
1,Nc1nc(F)nc2c1ncn2[C@@H]1O[C@H](CO)[C@@H](O)[C@@H]1O [Fludarabine] (1000 nM),101%
2,Nc1ccccc1NC(=O)c1ccc(CNC(=O)OCc2cccnc2)cc1 [Entinostat] (1000 nM),89.8%
3,CNC(=O)c1cc(Oc2ccc(NC(=O)Nc3cc(C(C)(C)C)nn3-c3ccc4ncccc4c3)c(F)c2)ccn1 [Rebastinib] (100 nM),101%
4,Cc1ccc(-c2cc(C(F)(F)F)nn2-c2ccc(S(N)(=O)=O)cc2)cc1 [Celecoxib] (1000 nM),99%
5,CCN(CC)CCCC(C)Nc1c2ccc(Cl)cc2nc2ccc(OC)cc12 (stereo not given) [Mepacrine] (5000 nM),102%
6,C=CC(=O)Nc1cc2c(Nc3ccc(F)c(Cl)c3)ncnc2cc1OCCCN1CCOCC1 [Canertinib] (1000 nM),73.6%
7,C[C@H]1C[C@@H]2[C@H]([C@@H](O)C[C@@]3(C)[C@H]2CC[C@]3(O)C(=O)CO)[C@@]2(C)C=CC(=O)C=C12 [Methylprednisolone] (1000 nM),101%
8,CC[C@H](Nc1ncnc2[nH]cnc12)c1nc2cccc(F)c2c(=O)n1-c1ccccc1 [GS-1101] (1000 nM),89.6%
9,C=CC(=O)N1CCC[C@@H](n2nc(-c3ccc(Oc4ccccc4)cc3)c3c(N)ncnc32)C1 [Ibrutinib] (100 nM),72.5%

# System: DU-4475
# Assay: as above
# Settings: incubation time: 72 h
# Method in brief: as §1
row,Structure (SMILES),normalised response
1,Nc1nc(F)nc2c1ncn2[C@@H]1O[C@H](CO)[C@@H](O)[C@@H]1O [Fludarabine] (1000 nM),102%
2,Nc1ccccc1NC(=O)c1ccc(CNC(=O)OCc2cccnc2)cc1 [Entinostat] (1000 nM),102%
3,CNC(=O)c1cc(Oc2ccc(NC(=O)Nc3cc(C(C)(C)C)nn3-c3ccc4ncccc4c3)c(F)c2)ccn1 [Rebastinib] (100 nM),101%
4,Cc1ccc(-c2cc(C(F)(F)F)nn2-c2ccc(S(N)(=O)=O)cc2)cc1 [Celecoxib] (1000 nM),94%
5,CCN(CC)CCCC(C)Nc1c2ccc(Cl)cc2nc2ccc(OC)cc12 (stereo not given) [Mepacrine] (5000 nM),97.3%
6,C=CC(=O)Nc1cc2c(Nc3ccc(F)c(Cl)c3)ncnc2cc1OCCCN1CCOCC1 [Canertinib] (1000 nM),101%
7,C[C@H]1C[C@@H]2[C@H]([C@@H](O)C[C@@]3(C)[C@H]2CC[C@]3(O)C(=O)CO)[C@@]2(C)C=CC(=O)C=C12 [Methylprednisolone] (1000 nM),100%
8,CC[C@H](Nc1ncnc2[nH]cnc12)c1nc2cccc(F)c2c(=O)n1-c1ccccc1 [GS-1101] (1000 nM),92.3%
9,C=CC(=O)N1CCC[C@@H](n2nc(-c3ccc(Oc4ccccc4)cc3)c3c(N)ncnc32)C1 [Ibrutinib] (100 nM),105%

# System: CAL-148
# Assay: as above
# Settings: incubation time: 72 h
# Method in brief: as §1
row,Structure (SMILES),normalised response
1,Nc1nc(F)nc2c1ncn2[C@@H]1O[C@H](CO)[C@@H](O)[C@@H]1O [Fludarabine] (1000 nM),97.2%
2,Nc1ccccc1NC(=O)c1ccc(CNC(=O)OCc2cccnc2)cc1 [Entinostat] (1000 nM),93.7%
3,CNC(=O)c1cc(Oc2ccc(NC(=O)Nc3cc(C(C)(C)C)nn3-c3ccc4ncccc4c3)c(F)c2)ccn1 [Rebastinib] (100 nM),105%
4,Cc1ccc(-c2cc(C(F)(F)F)nn2-c2ccc(S(N)(=O)=O)cc2)cc1 [Celecoxib] (1000 nM),91.3%
5,CCN(CC)CCCC(C)Nc1c2ccc(Cl)cc2nc2ccc(OC)cc12 (stereo not given) [Mepacrine] (5000 nM),88.7%
6,C=CC(=O)Nc1cc2c(Nc3ccc(F)c(Cl)c3)ncnc2cc1OCCCN1CCOCC1 [Canertinib] (1000 nM),75.3%
7,C[C@H]1C[C@@H]2[C@H]([C@@H](O)C[C@@]3(C)[C@H]2CC[C@]3(O)C(=O)CO)[C@@]2(C)C=CC(=O)C=C12 [Methylprednisolone] (1000 nM),108%
